Legend:
[1] = Dark stability of cisPt(IV)-1, by HPLC; assay type: physicochemical; conditions: in the dark for about 30 min, free or mixed with radical spin traps
Protocol: 1 mM cisPt(IV)-1 (Pt(IV) complex of Formula (IIa)) and cisplatin in water was mixed with 1 or 10 mM DMPO or TEMPO. The mixed solution was irradiated with UV or kept in the dark for 10 min. The solution was analyzed by HPLC. The Pt(I) adduct products were characterized by ESI-HRMS, and the acetate radical adduct was separated and characterized by proton NMR. For the study of photolysis rate, the solution was irradiated with UV (365 nm, 9.8 mW/cm^2) for 0.5, 1, 2, 3, 4, 5 and 10 min, with or without the radical spin trap and analyzed by HPLC. For the study of dark stability, the solution was incubated at room temperature in the dark for 30 min before examined by HPLC.

[2] = Photolysis of Pt complexes in water under UV, by RP-HPLC; assay type: physicochemical; conditions: 1 mM in water, 365 nm, 9.8 mW/cm^2, 10 min
Protocol: The photolysis of Pt complexes in test tubes was examined by reversed-phase high performance liquid chromatography (RP-HPLC). 1 mM Pt complexes were dissolved in water. Then the mixed solution was irradiated with UV light (365 nm, 9.8 mW/cm^2) for 10 min at room temperature, and the solution was examined by HPLC. The percentage of remained Pt complexes was obtained from the ratio of the peak area of Pt complexes upon irradiation to that of the intact Pt complexes.

Row | SMILES | stability in the dark [1] | percentage of intact Pt complex remaining upon irradiation [2] [%]
1 | CC(=O)[O][Pt]([NH2])([NH2])([Cl])([Cl])[O]C(C)=O [cisPt(IV)-1] | remained intact | –
2 | O=C1[O][Pt]2([NH][C@@H]3CCCC[C@H]3[NH]2)[O]C1=O [oxaliplatin] | – | 99

Reference: patent US20240400596A1, “PLATINUM-BASED PHOTOINITIATOR AND PHOTOCROSSLINKER, THEIR USE FOR ADDUCT FORMATION” (City University of Hong Kong, priority 2023, published 2024)
